Source: patent publication US10485235B2, “Aryloxypyrimidinyl ethers as herbicides” (FMC Corporation, priority 2015, dated 2019)

How the values were obtained:
Format in all cases: in vivo
[1] = system: ragweed (common ragweed, Ambrosia elatior); experiment: Test A postemergence, ragweed; conditions: postemergence, 0 to 100 scale, 0 is no effect, 100 is complete control, approximately 10 days
Text: (§1) Seeds of plant species selected from barnyardgrass (Echinochloa crus-galli), kochia (Kochia scoparia), ragweed (common ragweed, Ambrosia elatior), ryegrass, Italian (Italian ryegrass, Lolium multiflorum), foxtail, giant (giant foxtail, Setaria faberii), and pigweed (Amaranthus retroflexus), were planted into a blend of loam soil and sand and treated preemergence with a directed soil spray using test chemicals formulated in a non-phytotoxic solvent mixture which included a surfactant.
(§2) At the same time, plants selected from these weed species and also wheat (Triticum aestivum), corn (Zea mays), blackgrass (Alopecurus myosuroides), and galium (catchweed bedstraw, Galium aparine), were planted in pots containing the same blend of loam soil and sand and treated with postemergence applications of test chemicals formulated in the same manner. Plants ranged in height from 2 to 10 cm and were in the one- to two-leaf stage for the postemergence treatment. Treated plants and untreated controls were maintained in a greenhouse for approximately 10 days, after which time all treated plants were compared to untreated controls and visually evaluated for injury. Plant response ratings, summarized in Table A, are based on a 0 to 100 scale where 0 is no effect and 100 is complete control. A dash (—) response means no test result.

corn (Zea mays) = experiment: Test A postemergence, corn; conditions: postemergence, 0 to 100 scale, 0 is no effect, 100 is complete control, approximately 10 days
Text: as §1, §2

[2] = system: ryegrass, Italian (Italian ryegrass, Lolium multiflorum); experiment: Test A preemergence, Italian ryegrass; conditions: Preemergence, 0 to 100 scale (0 no effect, 100 complete control)
Text: as §1, §2

[3] = system: barnyardgrass (Echinochloa crus-galli); experiment: Test A preemergence, barnyardgrass; conditions: Preemergence, 0 to 100 scale (0 no effect, 100 complete control)
Text: as §1, §2

[4] = system: ragweed (common ragweed, Ambrosia elatior); experiment: Test A preemergence, ragweed; conditions: Preemergence, 0 to 100 scale (0 no effect, 100 complete control)
Text: as §1, §2

[5] = system: sedge, umbrella (small-flower umbrella sedge, Cyperus difformis); experiment: Test B flooded paddy test, umbrella sedge; conditions: 250 g ai/ha, Flood; visual rating after 13 to 15 days; scale 0 to 100, 0 is no effect, 100 is complete control
Experimental: (§3) Plant species in the flooded paddy test selected from rice (Oryza sativa), sedge, umbrella (small-flower umbrella sedge, Cyperus difformis), ducksalad (Heteranthera limosa), and barnyardgrass (Echinochloa crus-galli) were grown to the 2-leaf stage for testing. At time of treatment, test pots were flooded to 3 cm above the soil surface, treated by application of test compounds directly to the paddy water, and then maintained at that water depth for the duration of the test. Treated plants and controls were maintained in a greenhouse for 13 to 15 days, after which time all species were compared to controls and visually evaluated. Plant response ratings, summarized in Table B, are based on a scale of 0 to 100 where 0 is no effect and 100 is complete control. A dash (—) response means no test result.

kochia (Kochia scoparia) [6] = experiment: Test A preemergence, kochia; conditions: Preemergence, 0 to 100 scale (0 no effect, 100 complete control)
Text: as §1, §2

[7] = system: blackgrass (Alopecurus myosuroides); experiment: Test A postemergence, blackgrass; conditions: postemergence, 0 to 100 scale, 0 is no effect, 100 is complete control, approximately 10 days
Text: as §1, §2

[8] = system: galium (catchweed bedstraw, Galium aparine); experiment: Test A postemergence, galium; conditions: postemergence, 0 to 100 scale, 0 is no effect, 100 is complete control, approximately 10 days
Text: as §1, §2

[9] = system: pigweed (Amaranthus retroflexus); experiment: Test A postemergence, pigweed; conditions: postemergence, 0 to 100 scale, 0 is no effect, 100 is complete control, approximately 10 days
Text: as §1, §2

[10] = system: wheat (Triticum aestivum); experiment: Test A postemergence, wheat; conditions: postemergence, 0 to 100 scale, 0 is no effect, 100 is complete control, approximately 10 days
Text: as §1, §2

rice (Oryza sativa) = experiment: Test B flooded paddy test, rice; conditions: 250 g ai/ha, Flood; visual rating after 13 to 15 days; scale 0 to 100, 0 is no effect, 100 is complete control
Experimental: as §3

[11] = system: pigweed (Amaranthus retroflexus); experiment: Test A preemergence, pigweed; conditions: Preemergence, 0 to 100 scale (0 no effect, 100 complete control)
Text: as §1, §2

[12] = system: foxtail, giant (giant foxtail, Setaria faberii); experiment: Test A preemergence, giant foxtail; conditions: Preemergence, 0 to 100 scale (0 no effect, 100 complete control)
Text: as §1, §2

kochia (Kochia scoparia) [13] = experiment: Test A postemergence, kochia; conditions: postemergence, 0 to 100 scale, 0 is no effect, 100 is complete control, approximately 10 days
Text: as §1, §2

[14] = system: ryegrass, Italian (Italian ryegrass, Lolium multiflorum); experiment: Test A postemergence, Italian ryegrass; conditions: postemergence, 0 to 100 scale, 0 is no effect, 100 is complete control, approximately 10 days
Text: as §1, §2

[15] = system: foxtail, giant (giant foxtail, Setaria faberii); experiment: Test A postemergence, giant foxtail; conditions: postemergence, 0 to 100 scale, 0 is no effect, 100 is complete control, approximately 10 days
Text: as §1, §2

[16] = system: ducksalad (Heteranthera limosa); experiment: Test B flooded paddy test, ducksalad; conditions: 250 g ai/ha, Flood; visual rating after 13 to 15 days; scale 0 to 100, 0 is no effect, 100 is complete control
Experimental: as §3

[17] = system: barnyardgrass (Echinochloa crus-galli); experiment: Test A postemergence, barnyardgrass; conditions: postemergence, 0 to 100 scale, 0 is no effect, 100 is complete control, approximately 10 days
Text: as §1, §2

[18] = system: barnyardgrass (Echinochloa crus-galli); experiment: Test B flooded paddy test, barnyardgrass; conditions: 250 g ai/ha, Flood; visual rating after 13 to 15 days; scale 0 to 100, 0 is no effect, 100 is complete control
Experimental: as §3

Row | SMILES | Plant response rating, Ragweed ([1]; 125 g ai/ha) | Plant response rating, Corn (corn (Zea mays); 125 g ai/ha) | Plant response rating, Ryegrass, Italian ([2]; 125 g ai/ha) | Plant response rating, Barnyardgrass ([3]; 125 g ai/ha) | Plant response rating, Ragweed ([4]; 125 g ai/ha) | Plant response rating, Sedge, Umbrella [5] | Plant response rating, Kochia (kochia (Kochia scoparia) [6]; 125 g ai/ha) | Plant response rating, Blackgrass ([7]; 125 g ai/ha) | Plant response rating, Galium ([8]; 125 g ai/ha) | Plant response rating, Pigweed ([9]; 125 g ai/ha) | Plant response rating, Wheat ([10]; 125 g ai/ha) | Plant response rating, Rice (rice (Oryza sativa)) | Plant response rating, Pigweed ([11]; 125 g ai/ha) | Plant response rating, Foxtail, Giant ([12]; 125 g ai/ha) | Plant response rating, Kochia (kochia (Kochia scoparia) [13]; 125 g ai/ha) | Plant response rating, Ryegrass, Italian ([14]; 125 g ai/ha) | Plant response rating, Foxtail, Giant ([15]; 125 g ai/ha) | Plant response rating, Ducksalad [16] | Plant response rating, Barnyardgrass ([17]; 125 g ai/ha) | Plant response rating, Barnyardgrass [18] | also measured
1 | N#Cc1cccc(Oc2ncc(Cl)cn2)c1OCc1cccc(Cl)c1 [Compound 21] | 10 | 10 | 0 | 0 | 0 | 0 | 0 | 0 | 20 | 50 | 0 | 0 | 10 | 40 | 40 | 0 | 10 | 0 | 10 | 0 | Plant response rating, Ragweed ([1]; 500 g ai/ha): 20; Plant response rating, Corn (corn (Zea mays); 500 g ai/ha): 20; Plant response rating, Ryegrass, Italian ([2]; 500 g ai/ha): 10; Plant response rating, Barnyardgrass ([3]; 500 g ai/ha): 10; Plant response rating, Ragweed ([4]; 500 g ai/ha): 0; Plant response rating, Kochia (kochia (Kochia scoparia) [6]; 500 g ai/ha): 30; Plant response rating, Blackgrass ([7]; 500 g ai/ha): 20; Plant response rating, Galium ([8]; 500 g ai/ha): 70; Plant response rating, Pigweed ([9]; 500 g ai/ha): 60; Plant response rating, Wheat ([10]; 500 g ai/ha): 10; Plant response rating, Pigweed ([11]; 500 g ai/ha): 40; Plant response rating, Foxtail, Giant ([12]; 500 g ai/ha): 100; Plant response rating, Kochia (kochia (Kochia scoparia) [13]; 500 g ai/ha): 70; Plant response rating, Ryegrass, Italian ([14]; 500 g ai/ha): 0; Plant response rating, Foxtail, Giant ([15]; 500 g ai/ha): 40; Plant response rating, Barnyardgrass ([17]; 500 g ai/ha): 20
2 | FC(F)(F)CCCCOc1c(Br)cccc1Oc1ncc(Cl)cn1 [Compound 33] | 10 | 20 | 20 | 50 | 0 | 95 | 20 | 40 | 90 | 100 | 10 | 0 | 90 | 100 | 90 | 20 | 60 | 30 | 60 | 0 | Plant response rating, Ragweed ([1]; 31 g ai/ha): 0; Plant response rating, Corn (corn (Zea mays); 31 g ai/ha): 10; Plant response rating, Ryegrass, Italian ([2]; 31 g ai/ha): 0; Plant response rating, Barnyardgrass ([3]; 31 g ai/ha): 10; Plant response rating, Ragweed ([4]; 31 g ai/ha): 0; Plant response rating, Kochia (kochia (Kochia scoparia) [6]; 31 g ai/ha): 0; Plant response rating, Blackgrass ([7]; 31 g ai/ha): 10; Plant response rating, Galium ([8]; 31 g ai/ha): 50; Plant response rating, Pigweed ([9]; 31 g ai/ha): 80; Plant response rating, Wheat ([10]; 31 g ai/ha): 0; Plant response rating, Pigweed ([11]; 31 g ai/ha): 10; Plant response rating, Foxtail, Giant ([12]; 31 g ai/ha): 60; Plant response rating, Kochia (kochia (Kochia scoparia) [13]; 31 g ai/ha): 50; Plant response rating, Ryegrass, Italian ([14]; 31 g ai/ha): 0; Plant response rating, Foxtail, Giant ([15]; 31 g ai/ha): 20; Plant response rating, Barnyardgrass ([17]; 31 g ai/ha): 10
3 | N#Cc1cccc(Oc2ncc(Cl)cn2)c1OCC(F)(F)C(F)F [Compound 14] | 10 | 20 | 10 | 90 | 0 | 0 | 90 | 60 | 50 | 100 | 20 | 0 | 100 | 100 | 100 | 10 | 80 | 0 | 80 | 0 | Plant response rating, Ragweed ([1]; 500 g ai/ha): 20; Plant response rating, Corn (corn (Zea mays); 500 g ai/ha): 50; Plant response rating, Ryegrass, Italian ([2]; 500 g ai/ha): 70; Plant response rating, Barnyardgrass ([3]; 500 g ai/ha): 100; Plant response rating, Ragweed ([4]; 500 g ai/ha): 0; Plant response rating, Kochia (kochia (Kochia scoparia) [6]; 500 g ai/ha): 100; Plant response rating, Blackgrass ([7]; 500 g ai/ha): 90; Plant response rating, Galium ([8]; 500 g ai/ha): 100; Plant response rating, Pigweed ([9]; 500 g ai/ha): 100; Plant response rating, Wheat ([10]; 500 g ai/ha): 40; Plant response rating, Pigweed ([11]; 500 g ai/ha): 100; Plant response rating, Foxtail, Giant ([12]; 500 g ai/ha): 100; Plant response rating, Kochia (kochia (Kochia scoparia) [13]; 500 g ai/ha): 100; Plant response rating, Ryegrass, Italian ([14]; 500 g ai/ha): 50; Plant response rating, Foxtail, Giant ([15]; 500 g ai/ha): 100; Plant response rating, Barnyardgrass ([17]; 500 g ai/ha): 100
4 | FCCCOc1c(Cl)cccc1Oc1ncc(Cl)cn1 [Compound 44] | 0 | 10 | 0 | 20 | 0 | 30 | 40 | 10 | 20 | 70 | 0 | 0 | 100 | 80 | 70 | 0 | 20 | 70 | 10 | 0 | Plant response rating, Ragweed ([1]; 31 g ai/ha): 0; Plant response rating, Corn (corn (Zea mays); 31 g ai/ha): 0; Plant response rating, Ryegrass, Italian ([2]; 31 g ai/ha): 0; Plant response rating, Barnyardgrass ([3]; 31 g ai/ha): 10; Plant response rating, Ragweed ([4]; 31 g ai/ha): 0; Plant response rating, Kochia (kochia (Kochia scoparia) [6]; 31 g ai/ha): 0; Plant response rating, Blackgrass ([7]; 31 g ai/ha): 0; Plant response rating, Galium ([8]; 31 g ai/ha): 10; Plant response rating, Pigweed ([9]; 31 g ai/ha): 30; Plant response rating, Wheat ([10]; 31 g ai/ha): 0; Plant response rating, Pigweed ([11]; 31 g ai/ha): 10; Plant response rating, Foxtail, Giant ([12]; 31 g ai/ha): 10; Plant response rating, Kochia (kochia (Kochia scoparia) [13]; 31 g ai/ha): 20; Plant response rating, Ryegrass, Italian ([14]; 31 g ai/ha): 0; Plant response rating, Foxtail, Giant ([15]; 31 g ai/ha): 0; Plant response rating, Barnyardgrass ([17]; 31 g ai/ha): 0
5 | Cc1cccc(Oc2ncc(Cl)cn2)c1OC/C=C/Cl [Compound 59] | 0 | 10 | 0 | 100 | 0 | 90 | 100 | 50 | 30 | 70 | 0 | 0 | 100 | 50 |  | 0 | 50 | 100 | 100 | 20 | Plant response rating, Ragweed ([1]; 31 g ai/ha): 0; Plant response rating, Corn (corn (Zea mays); 31 g ai/ha): 0; Plant response rating, Ryegrass, Italian ([2]; 31 g ai/ha): 0; Plant response rating, Barnyardgrass ([3]; 31 g ai/ha): 30; Plant response rating, Ragweed ([4]; 31 g ai/ha): 0; Plant response rating, Kochia (kochia (Kochia scoparia) [6]; 31 g ai/ha): 60; Plant response rating, Blackgrass ([7]; 31 g ai/ha): 0; Plant response rating, Galium ([8]; 31 g ai/ha): 90; Plant response rating, Pigweed ([9]; 31 g ai/ha): 40; Plant response rating, Wheat ([10]; 31 g ai/ha): 0; Plant response rating, Pigweed ([11]; 31 g ai/ha): 20; Plant response rating, Foxtail, Giant ([12]; 31 g ai/ha): 10; Plant response rating, Ryegrass, Italian ([14]; 31 g ai/ha): 0; Plant response rating, Foxtail, Giant ([15]; 31 g ai/ha): 20; Plant response rating, Barnyardgrass ([17]; 31 g ai/ha): 40
